According to patent US20080039434A1, “Treatment of Interstitial Cystitis with Vitamin D Compounds” (BioXell S. p.A., priority 2004, published 2008):

Tested on: rats with CYP-induced cystitis
Assay: Cystometry in rats with CYP induced chronic IC, Compound B
Type: in vivo, rat
Details: for # of NVBC / FP / MP / TP / amplitude of NVBC / Bl. Cap.: group value; for Bl. Cap.: unit from FIG. 5 legend
From the text: Wistar rats ([…] weighing 125-175 g, age 8 weeks) were used. Under general inhalation anesthesia with 2% isoflurane, polyethylene tubing (PE-50, Clay Adams, Parsippany, N.J.) with the end flared by heat was inserted into the dome of the bladder and secured in place with a 6-0 nylon purse string suture. The distal end of the tubing was sealed, tunneled subcutaneously and externalized through a small incision at the back of the neck. The tubing was then coiled and buried subcutaneously. Following recovery (5 days) subject animals underwent three intraperitoneal injections of CYP (Sigma Chemical, St. Louis, Mo.; 75 mg/kg each, intraperitoneal) over the period of nine days. […] Two weeks following the initiation of the treatment animals underwent a conscious cystometrogram to assess the function of the urinary bladder. […] An ethanol stock solution of Compound B (1 mg/ml) was dissolved in Miglyol vehicle at the appropriate concentration. Control animals received the vehicle containing the same amount of ethanol. Drug (or vehicle) treatment was carried out by daily gavage after weighing the animal. Drug solution was prepared calculating a final volume of 100 ul/10 grams body weight. Following two weeks of treatment, animals were placed unrestrained in a cage and the distal end of the catheter was extracted from the subcutaneous pouch and connected via T-tube to a pressure transducer (Grass® Model PT300, West Warwick, R.I.) and microinjection pump (Harvard Apparatus 22, South Natick, Mass.). Saline solution (0.9%, room temperature) was infused into the bladder at a rate of 10 ml/h. Intravesical pressure was recorded continuously using a Neurodata Acquisition System (Grass®, Astro-Med, West Warwick, R.I.). At a minimum, three reproducible micturition cycles were recorded. […] The post-void residual (PVR) was measured by aspirating the residual urine remaining in the bladder after the last micturition or draining the bladder by gravity. Bladder capacity (BC) was calculated as the sum of voided volume and PVR. The bladder was harvested and its weight was recorded following euthanasia.

[1] = 30 ug/kg oral daily for 14 days
[2] = 75 ug/kg oral daily for 14 days
[3] = vs vehicle, not statistically significant

For `C=C1/C(=C\C=C2/CCC[C@]3(C)C([C@@H](C)C/C=C/C(O)(CC)CC)=CC[C@@H]23)C[C@@H](O)C[C@@H]1F` [Compound B, 1-alpha-fluoro-25-hydroxy-16,23E-diene-26,27-bishomo-20-epi-cholecalciferol], the “# of NVBC” value [1] was 11.7, the FP [1] was 23.3 cm H2O and the MP [1] was 79.3 cm H2O. The TP [1] was 29.3 cm H2O, the “amplitude of NVBC” value [1] was 16.6 and the “Bl. Cap.” value [1] was 2.0 mL. For the same compound, the “# of NVBC” value [2] was 8.3, the FP [2] was 26.1 cm H2O and the MP [2] was 90.5 cm H2O. For the same compound, the TP [2] was 36.3 cm H2O, the “amplitude of NVBC” value [2] was 13.6 and the “Bl. Cap.” value [2] was 2.1 mL. The “frequency of non-voiding bladder contractions” value (both dosage levels (30 ug/kg, p<0.01; 75 ug/kg, p<0.005) vs vehicle) was “significantly reduced”, the bladder capacity (both dosage levels (30 ug/kg, p<0.01; 75 ug/kg, p<0.01) vs vehicle) was “increased” and the “amplitude of non-voiding bladder contractions” value (higher dose level (75 ug/kg), not statistically significant) was “reduced”. For the same compound, the filling pressure [3] was “Marginal increase” and the threshold pressure [3] was “Marginal increase”.
